Tested on: single cells
Experiment: chemosensitivity assay on single cells (live-cell imaging, FIG. 10)
Assay type: cell-based
Details: single cell imaged before, upon addition, and 2 minutes and 5 minutes after Y-27632 treatment
Text: FIG. 10 depicts a chemosensitivity assay conducted on single cells. Target cell subpopulations can be used for personalized medicine. In the instance of CTCs and CSCs, cells can be used for chemosensitivity testing on whereby standard and exploratory chemotherapy regimens can be tested on cultured CTCs and determination of the effects of chemotherapy drugs on CTCs, including cell viability and cell division rates measurement to determine the efficacy of a given drug. An example of how a chemosensitivity assay can be applied is depicted in FIG. 10. […] In this example, Rho Kinase inhibitor, Y-27632 was used (Ishizaki et al. 2000 Pharmacological Properties of Y-27632, a specific inhibitor of rho-associated kinases. Mol Pharmacol. 57(5):976-83). […] The plasma membrane of the cell retracts upon drug treatment after 2 minutes 1015 and 5 minutes 1020.

C[C@@H](N)[C@H]1CC[C@H](C(=O)Nc2ccncc2)CC1 [Y-27632]
effect on cell adhesions and plasma membrane of a single cell upon drug treatment: loss of adhesions and retraction of the plasma membrane

— patent publication US20180267025A1, “CANCER ANALYSIS SYSTEM” (Xcell Biosciences, Inc., priority 2013, published 2018)
